The source of these data is US20100190747A1, “Fused ring compound and use thereof” (priority 2009, published 2010).

The structures appear in SMILES notation.

For orientation: inhibition means the drop in the measured response relative to a control, in per cent.

T1 sequence (Q920R3 whole entry): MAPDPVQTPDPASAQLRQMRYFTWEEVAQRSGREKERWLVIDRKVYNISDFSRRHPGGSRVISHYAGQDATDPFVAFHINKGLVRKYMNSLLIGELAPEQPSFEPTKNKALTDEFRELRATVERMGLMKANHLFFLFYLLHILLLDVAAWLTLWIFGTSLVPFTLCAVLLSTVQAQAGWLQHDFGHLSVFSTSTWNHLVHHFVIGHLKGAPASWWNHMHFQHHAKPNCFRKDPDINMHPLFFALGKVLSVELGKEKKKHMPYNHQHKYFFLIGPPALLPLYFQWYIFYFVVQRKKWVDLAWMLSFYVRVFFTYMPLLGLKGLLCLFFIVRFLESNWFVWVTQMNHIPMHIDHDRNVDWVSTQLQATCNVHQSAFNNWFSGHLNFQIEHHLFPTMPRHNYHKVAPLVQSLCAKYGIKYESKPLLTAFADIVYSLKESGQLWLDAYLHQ

One assay has as its target T1, delta-5-desaturase (Rattus norvegicus, UniProt Q920R3).
T1 construct: the microsomal fraction of a rat river (10 μl), which had been diluted to 3 mg/ml; from tissue; host or cells: rat liver microsomal fraction
As to the kind of experiment: Inhibitory activity on delta-5-desaturase (rat liver microsomal fraction, 14C-eicosatrienoic acid, TLC). Type of assay: biochemical. To be noted: test compound at 10 μM, room temperature, 120 minutes. In outline:
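Rat liver microsomes (3 mg/ml before addition) incubated with test compound at 10 μM, NADH, ATP, CoA and 14C-eicosatrienoic acid in phosphate buffer pH 7.4 with BSA and glutathione, 120 min at room temperature. Lipids saponified, extracted, separated by reverse-phase TLC and imaged; % inhibition reported.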
For orientation: Liver microsomes are a subcellular fraction often used to study metabolism.
Take `O=C1Cc2c(nc(SCC3CC3)n(-c3ccc(OCC(F)(F)F)cc3)c2=O)N1` [Example 297, 2-[(Cyclopropylmethyl)sulfanyl]-3-[4-(2,2,2-trifluoroethoxy)phenyl]-5,7-dihydro-3H-pyrrolo[2,3-d]pyrimidine-4,6-dione]: the inhibition at 10 µM came to 101%.
On to `O=C1Cc2c(nc(OCC(F)(F)F)n(-c3ccc(OCC(F)(F)F)cc3)c2=O)N1` [Example 274, 2-(2,2,2-Trifluoroethoxy)-3-[4-(2,2,2-trifluoroethoxy)phenyl]-5,7-dihydro-3H-pyrrolo[2,3-d]pyrimidine-4,6-dione], for which the inhibition at 10 µM was 100%.
As for `COCCOCCCSc1nc2c(c(=O)n1-c1ccc(OCC(F)(F)F)cc1)CC(=O)N2` [Example 299, 2-{[3-(2-Methoxyethoxy)propyl]sulfanyl}-3-[4-(2,2,2-trifluoroethoxy)phenyl]-5,7-dihydro-3H-pyrrolo[2,3-d]pyrimidine-4,6-dione], the inhibition at 10 µM was 100%.
The same measure, in the same setting: to `CCOc1ccc(-n2c(SCCCC(=O)N(C)CCC#N)nc3cc[nH]c3c2=O)cc1` [Example 66, N-(2-cyanoethyl)-4-{[3-(4-ethoxyphenyl)-4-oxo-4,5-dihydro-3H-pyrrolo[3,2-d]pyrimidin-2-yl]sulfanyl}-N-methylbutanamide] belongs 101%.
Turning to `N#CCCCCCSc1nc2cc[nH]c2c(=O)n1-c1ccc(OCC(F)(F)F)cc1` [Example 88, 6-({4-Oxo-3-[4-(2,2,2-trifluoroethoxy)phenyl]-4,5-dihydro-3H-pyrrolo[3,2-d]pyrimidin-2-yl}sulfanyl)hexanenitrile], the inhibition at 10 µM amounted to 100%.
Same read-out and setting: the value for `CC(C)Sc1nc2[nH]ccc2c(=O)n1-c1ccc(OCC(F)(F)F)cc1` [Example 251, 2-[(1-Methylethyl)sulfanyl]-3-[4-(2,2,2-trifluoroethoxy)phenyl]-3,7-dihydro-4H-pyrrolo[2,3-d]pyrimidin-4-one] was 97%; that for `CCOCCSc1nc2cc[nH]c2c(=O)n1-c1ccc(OCC(F)(F)F)cc1` [Example 74, 2-[(2-Ethoxyethyl)sulfanyl]-3-[4-(2,2,2-trifluoroethoxy)phenyl]-3,5-dihydro-4H-pyrrolo[3,2-d]pyrimidin-4-one] was 101%.
For `CC1(COc2ccc(-n3c(SCCCC(=O)NCCC#N)nc4[nH]ccc4c3=O)cc2)CC1` [Example 188, N-(2-cyanoethyl)-4-[(3-{4-[(1-methylcyclopropyl)methoxy]phenyl}-4-oxo-4,7-dihydro-3H-pyrrolo[2,3-d]pyrimidin-2-yl)sulfanyl]butanamide], the inhibition at 10 µM worked out at 98%.
On to `CC(C)(O)CNC(=O)CCCSc1nc2cc[nH]c2c(=O)n1-c1ccc(OCC(F)(F)F)cc1` [Example 99, N-(2-hydroxy-2-methylpropyl)-4-({4-oxo-3-[4-(2,2,2-trifluoroethoxy)phenyl]-4,5-dihydro-3H-pyrrolo[3,2-d]pyrimidin-2-yl}sulfanyl)butanamide], for which the inhibition at 10 µM worked out at 94%.
On the same count and under the same terms, the value for `CC(C)Oc1nc2[nH]ccc2c(=O)n1-c1ccc(OCC(F)(F)F)c(F)c1` [Example 316, 3-[3-Fluoro-4-(2,2,2-trifluoroethoxy)phenyl]-2-(1-methylethoxy)-3,7-dihydro-4H-pyrrolo[2,3-d]pyrimidin-4-one] was 103%; that for `CC(CCSc1nc2cc[nH]c2c(=O)n1-c1ccc(OCC(F)(F)F)cc1)C(=O)NCCC#N` (centres unmarked) [Example 85, N-(2-cyanoethyl)-2-methyl-4-({4-oxo-3-[4-(2,2,2-trifluoroethoxy)phenyl]-4,5-dihydro-3H-pyrrolo[3,2-d]pyrimidin-2-yl)sulfanyl)butanamide] was 99%.
Turning to `CCOCCCSc1nc2c(c(=O)n1-c1ccc(OCC(F)(F)F)cc1)CC(=O)N2` [Example 302, 2-[(3-Ethoxypropyl)sulfanyl]-3-[4-(2,2,2-trifluoroethoxy)phenyl]-5,7-dihydro-3H-pyrrolo[2,3-d]pyrimidine-4,6-dione], the inhibition at 10 µM was found to be 94%.
On the same count and under the same terms, the value for `CS(=O)(=O)CCCSc1nc2[nH]ccc2c(=O)n1-c1ccc(OCC2CC2)cc1` [Example 215, 3-[4-(Cyclopropylmethoxy)phenyl]-2-{[3-(methylsulfonyl)propyl]sulfanyl}-3,7-dihydro-4H-pyrrolo[2,3-d]pyrimidin-4-one] was 102%; that for `N#CCCNC(=O)CCCSc1nc2[nH]ccc2c(=O)n1-c1ccc(OCCC(F)(F)F)cc1` [Example 189, N-(2-cyanoethyl)-4-({4-oxo-3-[4-(3,3,3-trifluoropropoxy)phenyl]-4,7-dihydro-3H-pyrrolo[2,3-d]pyrimidin-2-yl}sulfanyl)butanamide] was 105%.
Take `CCSc1nc2[nH]ccc2c(=O)n1-c1ccc(OCC(F)F)cc1` [Example 248, 3-[4-(2,2-Difluoroethoxy)phenyl]-2-(ethylsulfanyl)-3,7-dihydro-4H-pyrrolo[2,3-d]pyrimidin-4-one]: the inhibition at 10 µM turned out to be 101%.
For `CCCCSc1nc2[nH]ccc2c(=O)n1-c1ccc(OCC(F)(F)F)cc1` [Example 252, 2-(Butylsulfanyl)-3-[4-(2,2,2-trifluoroethoxy)phenyl]-3,7-dihydro-4H-pyrrolo[2,3-d]pyrimidin-4-one], the inhibition at 10 µM worked out at 96%.
The same measure, in the same setting: the value for `CC(C)OCC(O)CSc1nc2cc[nH]c2c(=O)n1-c1ccc(OCC(F)(F)F)cc1` (centres unmarked) [Example 130, 2-{[2-Hydroxy-3-(1-methylethoxy)propyl]sulfanyl}-3-[4-(2,2,2-trifluoroethoxy)phenyl]-3,5-dihydro-4H-pyrrolo[3,2-d]pyrimidin-4-one] was 100%.
For `CCOCCOCCSc1nc2cc[nH]c2c(=O)n1-c1ccc(OCC2CC2)cc1` [Example 142, 3-[4-(Cyclopropylmethoxy)phenyl]-2-{[2-(2-ethoxyethoxy)ethyl]sulfanyl}-3,5-dihydro-4H-pyrrolo[3,2-d]pyrimidin-4-one], the inhibition at 10 µM is 98%.
Turning to `CC(C)(C)COc1ccc(-n2c(SCCCC(=O)NCCC#N)nc3[nH]ccc3c2=O)cc1` [Example 174, N-(2-cyanoethyl)-4-({3-[4-(2,2-dimethylpropoxy)phenyl]-4-oxo-4,7-dihydro-3H-pyrrolo[2,3-d]pyrimidin-2-yl}sulfanyl)butanamide], the inhibition at 10 µM came to 100%.
On the same count and under the same terms, to `O=c1c2[nH]ccc2nc(SCCCOC2CCOCC2)n1-c1ccc(OCC2CC2)cc1` [Example 157, 3-[4-(Cyclopropylmethoxy)phenyl]-2-{[3-(tetrahydro-2H-pyran-4-yloxy)propyl]sulfanyl}-3,5-dihydro-4H-pyrrolo[3,2-d]pyrimidin-4-one] belongs 101%; to `O=c1c2[nH]ccc2nc(SCCCS(=O)(=O)CC2CC2)n1-c1ccc(OCC2CC2)cc1` [Example 166, 3-[4-(Cyclopropylmethoxy)phenyl]-2-({3-[(cyclopropylmethyl)sulfonyl]propyl}sulfanyl)-3,5-dihydro-4H-pyrrolo[3,2-d]pyrimidin-4-one], 101%.
Turning to `COCCOCCCSc1nc2cc[nH]c2c(=O)n1-c1ccc(OCC(F)(F)F)cc1` [Example 78, 2-{[3-(2-Methoxyethoxy)propyl]sulfanyl}-3-[4-(2,2,2-trifluoroethoxy)phenyl]-3,5-dihydro-4H-pyrrolo[3,2-d]pyrimidin-4-one], the inhibition at 10 µM is 101%.
Still for that read-out and setting: to `CC(C)(C)COc1ccc(-n2c(SCCCC(=O)NCCC#N)nc3cc[nH]c3c2=O)cc1` [Example 115, N-(2-cyanoethyl)-4-({3-[4-(2,2-dimethylpropoxy)phenyl]-4-oxo-4,5-dihydro-3H-pyrrolo[3,2-d]pyrimidin-2-yl}sulfanyl)butanamide] belongs 103%; to `O=C(CCCSc1nc2cc[nH]c2c(=O)n1-c1ccc(OCC(F)(F)F)cc1)N1CCC(O)C1` (centres unmarked) [Example 97], 100%.

Still in this assay, the particulars now being: test compound at 10 μM, room temperature, 120 minutes, 10 µM.
`CCCCOc1nc2[nH]ccc2c(=O)n1-c1ccc(OCC(F)(F)F)cc1` [Example 287, 2-Butoxy-3-[4-(2,2,2-trifluoroethoxy)phenyl]-3,7-dihydro-4H-pyrrolo[2,3-d]pyrimidin-4-one]: the “Inhibitory activity at 10 μM (%)” value is 98%.

In another assay the test system is atherogenic diet fed apoE-deficient mice. The assay can be described thus: Anti-atherosclerotic and anti-obesity effects in atherogenic diet fed apoE-deficient mice. Type of assay: in vivo. To be noted: 10 mg/kg/day p.o. for 15 weeks; male apoE-deficient mice on high fat diet; aorta, oil red O staining; vehicle group taken as 100%. How it is done: Assessments of anti-atherosclerotic effects and anti-obesity effects on atherogenic diet fed apoE-deficient mice were performed by the method described below.
Male apoE-deficient mice of 11-13 week-age (Jacson Lab) conditioned with ordinary diet (Research Diet) in separate cages were allowed to take high fat diet (Research Diet) at libitum for 14 weeks to thereby form atherosclerotic lesions in the aorta. The test compound suspended in 0.5% methyl cellulose solution was forcedly and orally administered to the mice at 10 ml/kg everyday for 15 weeks from 1 week prior to the start of the high fat diet feeding. Body weights were measured on the day of autopsy. The body weight reduction ratio of test compound-administered group was calculated taking the body weight of vehicle-administered group as 100%, to thereby obtain an index for anti-obesity effects. The aorta (from immediately above the aortic valve to the ventral branch of common iliac artery) removed under anesthesia was totally incised after removal of adipose tissue, etc. adhering to the outer membrane of the aorta, to thereby prepare an incised aorta specimen. After formalin fixing, the incised aorta specimen was subjected to staining with oil red O. The thus stained incised aorta specimen was photographed with a digital camera. Subsequently, image analysis using Image Pro program (Planetron, Inc.) was performed to determine the area of atherosclerotic lesions stained red and the total area of the incised specimen (the area of vascular inner wall). The ratio of atherosclerotic lesions (%) was calculated by dividing the area of atherosclerotic lesions by the area of vascular inner wall. The reduction ratio of the atherosclerotic lesion area (%) in test compound-administered group was calculated taking the area of atherosclerotic lesions in vehicle-administered group as 100%, to thereby obtain an index for anti-atherosclerotic effects. All the measurement of the ratio of atherosclerotic lesions was performed in a blind fashion.
For `O=C1Cc2c(nc(SCC3CC3)n(-c3ccc(OCC(F)(F)F)cc3)c2=O)N1` [Example 297, 2-[(Cyclopropylmethyl)sulfanyl]-3-[4-(2,2,2-trifluoroethoxy)phenyl]-5,7-dihydro-3H-pyrrolo[2,3-d]pyrimidine-4,6-dione], the “Reduction in atherosclerotic lesion area (%)” value is recorded as 26%.
Same read-out and setting: the value for `O=C1Cc2c(nc(OCC(F)(F)F)n(-c3ccc(OCC(F)(F)F)cc3)c2=O)N1` [Example 274, 2-(2,2,2-Trifluoroethoxy)-3-[4-(2,2,2-trifluoroethoxy)phenyl]-5,7-dihydro-3H-pyrrolo[2,3-d]pyrimidine-4,6-dione] was 26%.

The same assay, now with this note: 10 mg/kg/day p.o. for 15 weeks; male apoE-deficient mice on high fat diet; vehicle group taken as 100%.
`O=C1Cc2c(nc(SCC3CC3)n(-c3ccc(OCC(F)(F)F)cc3)c2=O)N1` [Example 297, 2-[(Cyclopropylmethyl)sulfanyl]-3-[4-(2,2,2-trifluoroethoxy)phenyl]-5,7-dihydro-3H-pyrrolo[2,3-d]pyrimidine-4,6-dione]: the “Reduction in body weight (%)” value came to 8%.
Still for that read-out and setting: the value for `O=C1Cc2c(nc(OCC(F)(F)F)n(-c3ccc(OCC(F)(F)F)cc3)c2=O)N1` [Example 274, 2-(2,2,2-Trifluoroethoxy)-3-[4-(2,2,2-trifluoroethoxy)phenyl]-5,7-dihydro-3H-pyrrolo[2,3-d]pyrimidine-4,6-dione] was 8%.
